Experimental findings from article PMC5614969, “High-Affinity Functional Fluorescent Ligands for Human β-Adrenoceptors” (Scientific Reports, 2017) are described below.

In series [1] the target is T1, β2AR-YFP fusion protein (Homo sapiens, UniProt P07550).
T1 construct: host or cells: U2OS
As to the kind of experiment: Confocal imaging of living U2OS cells expressing β2AR-YFP (staining, internalization, competitive displacement, no-wash). Type of series: cell-based. As to conditions: 90 min, 100 nM carazolol-KK114 (24), 5 nM ab118171, no washing.

The nature of series [2]: Fluorescence increase upon addition of SDS to probe solutions. Type of series: physicochemical. To be noted: addition of 0.1% SDS to ligand in PBS pH 7.4 with 1 mg/ml BSA; mean ± SD, n=3. As for the experimental part:
Fluorescence spectra of 1 µM solution of fluorescent dyes and ligands in PBS pH 7.4, PBS pH 7.4 + 1 mg/ml BSA (Sigma) and with or without 0.1% SDS (Acros Organics) were recorded on a multiwell plate reader Spark 20 M (Tecan) in half-area black 96-well plates (Greiner Bio-One, cat. 675076) at room temperature (25 °C) after 2 h incubation. Fluorescence emission was recorded from 600 nm to 800 nm with excitation at 580 nm. The emission bandwidth for all measurements was set to 5 nm. The spectra were averaged from 3 individual experiments. Ratios F(BSA+SDS)/F(BSA) of fluorescence signals at 635 nm for 610CP, 645 nm for BODIPY 630/650-X and 655 nm for KK114 conjugates were calculated. The obtained results are summarized (Table 1 and Supplementary Fig. 7).

The target of series [3] is β2AR (Homo sapiens, UniProt P07550). As to the kind of experiment: cAMP FRET sensor assay, competitive displacement of isoprenaline by antagonists in HEK293 cells. It is filed as cell-based. How it is done: The culture was maintained by subculturing the cells every 4 to 5 days using the standard trypsinization procedure. Before measurements, cells were trypsinated and transferred in a 96-well glass bottom plate (MatTek Corporation; Cat. No. P96GC-1.5–5-F) to contain 10,000–30,000 cells per well in 200 µL of DMEM media. After 24 h incubation in 5% CO2 at 37 °C, the cells were washed with HBSS pH 7.2 (200 µL), and the wells were filled with 200 µL HBSS. The DMSO stock solutions of the fluorescent probes were diluted 5,000 times in HBSS and used in experiments. In the antagonist inhibition experiment, we used β1 and β2 adrenoceptor agonist isoprenaline (abcr GmbH) as a positive control causing cAMP elevation. […] The fluorescent ligand solutions of different concentrations in HBSS were premixed with the isoprenaline solution. 50 µL of a final solution was added to each well and the measurement was started upon addition and continued for 1 h in 10 min intervals between the readouts (inclusive).
β2AR, sequence (P07550 whole entry): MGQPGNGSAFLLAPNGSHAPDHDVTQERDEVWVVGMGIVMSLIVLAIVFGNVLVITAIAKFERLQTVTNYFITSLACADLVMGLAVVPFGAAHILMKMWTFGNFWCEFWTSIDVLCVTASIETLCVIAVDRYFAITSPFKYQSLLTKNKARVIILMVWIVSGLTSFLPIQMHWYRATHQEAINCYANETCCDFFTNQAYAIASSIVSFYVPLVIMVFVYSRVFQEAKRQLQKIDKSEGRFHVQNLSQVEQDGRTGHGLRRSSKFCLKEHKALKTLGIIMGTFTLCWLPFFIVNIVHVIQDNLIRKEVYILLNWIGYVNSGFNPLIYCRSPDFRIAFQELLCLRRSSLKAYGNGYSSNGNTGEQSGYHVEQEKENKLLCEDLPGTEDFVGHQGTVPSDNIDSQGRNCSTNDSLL
The ligands were added using an automated pipette to initiate the sensor response. FRET readout from the cAMP sensor was performed on a multiwell plate reader Spark 20 M (Tecan) at room temperature (25 °C). Fluorescence readout amplitudes were calculated from time series for different ligand concentrations, following background subtraction (media only). […] Data were derived from 3 independent experiments and each independent experiment was performed in triplicate.
Sensor response R(CFP/FRET) was calculated using (1):1 R(CFP/FRET)=(FimTurquoise−FbkgmTurquoise)/(FiFRET−FbkgFRET) where F i ^mTurquoise – mTurquoise fluorescence intensity in the wells with cells; F bkg ^mTurquoise - mTurquoise fluorescence intensity in the control wells without cells; F i ^FRET – FRET signal intensity in the wells with cells; F bkg ^FRET – FRET signal intensity in the control wells without cells. For every result, R(CFP/FRET) ratio was normalized to the R(CFP/FRET) response of DMSO sample.
K i ^app were calculated using the Cheng-Prusoff equation (2):2 Kiapp=IC50/[A]/EC50+1 where [A] – concentration of the isoprenaline; IC50 – fitted half maximal inhibitory concentration of labeled antagonist; EC50 – fitted half maximal response concentration of isoprenaline.

For series [4], the target named is T1, β2AR-YFP fusion protein. As to the kind of experiment: Confocal imaging of living U2OS cells expressing β2AR-YFP (staining, internalization, competitive displacement, no-wash). It is filed as cell-based. As to conditions: for Receptor internalization / Staining performance: U2OS cells expressing β2AR-YFP; for Staining performance: 610CP ligands at 1.9 µM (19) and 2.5 µM (16); for Competitive displacement: 100 nM probe (5 nM ab118171) with 10 µM unlabeled BI-167107 or carazolol, 30 min. How it is done:
U2OS cells (ATCC) were cultured in high-glucose DMEM (Dulbecco’s Modified Eagle medium, Thermo Fisher Scientific) supplemented with GlutaMAX-1 (Thermo Fisher Scientific) and 10% fetal bovine serum (FBS) (Thermo Fisher Scientific) in a humidified 5% CO2 incubator at 37 °C. CAPAN-1 cells (ATCC) were cultured in McCoy’s 5a Medium Modified supplemented with 10% fetal bovine serum (FBS) (Thermo Fisher Scientific) in a humidified 5% CO2 atmosphere at 37 °C. Cells were split every 3–5 days or at confluence. Cells were seeded in glass bottom 12-well plates (MatTek Corporation). […] We used 200,000 cells per well, 3 µg plasmid DNA and 3 µl of Lipofectamine 2000.
We performed imaging 48–72 h after transfection. Staining of the transfected cell was performed in Hanks’ balanced salt solution (HBSS, Lonza) without Phenol Red for 30–40 min at room temperature (to minimize internalization). Samples were washed two times with HBSS, and cells were imaged in DMEM (Thermo Fisher Scientific) supplemented with GlutaMAX-1 (Thermo Fisher Scientific) and 10% fetal bovine serum (FBS). For all staining experiments with cells, stock solutions of dyes in DMSO were used, and final DMSO content was < 0.5%. Imaging was performed on Leica SP8 (Leica Microsystems) or Abberior STED (Abberior Instruments GmbH) microscopes.
Competitive displacement experiment was performed in living U2OS cells expressing β2AR-YFP fusion protein.
Confocal imaging was performed on a Leica SP8 (Leica Microsystems, Mannheim, Germany) inverted confocal microscope equipped with an HC PL APO CS2 63x/1.40 Oil objective. Images were acquired using a 700 Hz bidirectional scanner, pixel size of 70 nm × 70 nm, pinhole of 95.6 µm diameter(1 AU) and frame averaging of 2.

Structures are written as SMILES. Like-named read-outs stand apart in the source and are kept apart here.

T1 sequence (P07550 whole entry, the tested form may be a part): as the sequence (P07550 whole entry) above

As a reminder, the IC50 is the concentration at which inhibition is half-maximal. As to `CN(CCC(=O)NCCOCCOCCOCCOCCC(=O)NCCC(C)(C)NCC(O)COc1cccc2[nH]c3ccccc3c12)C(=O)c1c(F)c(F)c(F)c(F)c1C1=c2cc3c4c(c2Oc2c1cc1c5c2CCCN5C(C)(C)C=C1CS(=O)(=O)O)CCC[N+]=4C(C)(C)C=C3CS(=O)(=O)[O-]` (stereo not drawn) [Carazolol-KK114 (24)], the no-wash imaging staining result in series [1] is given as “specific staining”. Besides, the “Fluorescence increase (F BSA+SDS / F BSA)” value in series [2] was determined as 5.9±1.5. Further, the IC50 in series [3] (17 nM isoprenaline, 30 min incubation time, read-out: IC50) was found to be 0.444 ± 0.079 µM; in series [3] (displacement of 17 nM isoprenaline, readout immediately after addition of ligands (0 min), read-out: IC50 (mean ± SD)) it was 2.45 ± 0.494 µM. Moreover, the Ki in series [3] (Cheng-Prusoff from IC50 right after addition of ligands, 17 nM isoprenaline, read-out: Ki app (mean ± SD)) came out at 0.162 ± 0.076 µM; in series [3] (measurement 30 min after addition of the ligands, read-out: Ki app), 0.0293 ± 0.015 µM. Moreover, the values for the Receptor internalization entry in series [4] and in series [4] (listed as carazolol-KK114 (24)) were “Weak” and “did not change”, respectively. Besides, the Staining performance result in series [4] is given as “Strong”. Besides, in series [4] (U2OS β2AR-YFP, 5 nM, 100 nM, 250 nM, 40 min), the “confocal staining at all tested concentrations” value is listed as “specific staining”. Further, the Competitive displacement result is listed as “Yes” in series [4] (U2OS β2AR-YFP) and “no background fluorescence” in series [4] (U2OS β2AR-YFP, listed as Carazalol-KK114 (24)).
With `Cc1c(CCC(=O)NCCOCCOCCNC(=O)CCN(C)C(=O)c2c(F)c(F)c(F)c(F)c2C2=c3cc4c5c(c3Oc3c2cc2c6c3CCCN6C(C)(C)C=C2CS(=O)(=O)O)CCC[N+]=5C(C)(C)C=C4CS(=O)(=O)[O-])cccc1CC(C)(C)NCC(O)c1ccc(O)c2c1OCC(=O)N2` (stereo not drawn) [BI-PEG-KK114 (18)], in series [2], the “Fluorescence increase (F BSA+SDS / F BSA)” value was 1.4±0.1. Also, in series [4], the Receptor internalization entry was “triggered extensive βAR internalization and Yes”; the Staining performance result is recorded as “Strong”. The Competitive displacement result in series [4] (U2OS β2AR-YFP) is “no signal and Yes”. In series [4] (U2OS β2AR-YFP, 100 nM, 40 min, room temperature, washed), the “confocal staining at 100 nM” value was “performed well”. Also, the “confocal staining at 250 nM” value in series [4] (U2OS β2AR-YFP, 250 nM, 40 min, room temperature, washed) is given as “performed well”.
